One data set relates to H9C2 cells. Nature of the data set: Cell survival assay (Multitox-Fluor) under DNP metabolic stress. The note with it: control (GFP-infected) H9C2 cells, DNP 10 mM, n=14. Type of data set: cell-based, rat. On the procedure:
H9C2 cells Rat embryonic heart H9c2 cells (ECACC, Salisbury, UK) were cultured in a tissue flask (at 5% CO2) containing Dulbecco's modified Eagle's medium supplemented with 10% fetal calf serum and 2 mM glutamine. For electrophysiological experiments, the cells were plated on a 35×10-mm culture dish containing 25-mm glass cover-slips. The cells were cultured in incubators (Galaxy, oxygen control model, RS Biotech, Irvine, UK). […] The recombinant SUR2A adenovirus (AV-SUR2A) was generated using the AdEasy XL Adenoviral Vector System (Stratagene). SUR2A gene was cloned into a shuttle vector pShuttle-CMV by PCR using the following primers containing restrict enzyme sites Bgl II/Xho I, sense, 5′-GCAGATCT GGCAGGCTGTTGGTAGCTCA-3′, antisense, 5′-GCCTCGAG CTACTTGTTGGTCATCACCA-3. […] The virus titer is determined using QuickTiter Adenovirus Titer Immunoassay Kit (Cell Biolabs, Inc) according to manufacturer's instructions. […]
The survival of H9C2 cells were assayed using Multitox-Fluor Multiplex Cytotoxicity Assay (Promega). […] Following 30 min-long incubation at 37° C., plates were measured using 1420 Multibabel Counter (Victor) plate reader, with excitation at 370 nm and emissions of 480 nm. The percentage of live cells was calculated based on the intensity of fluorescence according to the manufacturer instructions.

A further data set concerns cardiomyocytes. Briefly: Intracellular Ca2+ (Fluo-3) in cardiomyocytes exposed to isoprenaline. To be noted: 100 μM, n=6. In kind it is cell-based, mouse. The source says:
Ventricular cardiomyocytes were dissociated from the mouse using an established enzymatic procedure. Mitochondrial membrane potential was monitored in cells exposed to hypoxia as described. To measure the mitochondrial membrane potential cells were loaded with JC-1 according to the manufacturer's instructions (Invitrogen, Paisley, UK) and continously monitored with LSM-510. Fluorescence was imaged at 488 nm excitation wavelength and emission was captured at 530 and 590 nm for green and red channels respectively; the JC-1 ratio refers always to green/red ratio. The moment of cell death was defined as the point when the cell has become rounded (ratio of diameters<2). In addition to mitochondrial membrane potential, intracellular Ca^2+ levels were also measured using Fluo-3, Ca^2+-sensitive dye [described in 11-13].

In a further data set the test system is SUR2A mRNA. Briefly: Real time RT-PCR of myocardial SUR2A mRNA in mice on nicotinamide-rich diet. In kind it is in vivo. The note with it: n=6. From the text: Real time RT-PCR Total RNA was extracted from cardiac ventricular tissue of transgenic and wild type mice using TRIZOL reagent (Invitrogen, Paisley, UK) according to the manufacturer's recommendations. Extracted RNA was further purified with RNeasy Mini Kit (Qiagen, Crawley, UK) according to the manufacturer's instruction. The specific primers for mouse SUR2A, Kir6.2, Kir6.1, SUR1 and SUR2B (designed to amplify SUR2B and natively present SUR2A) were designed as follows: For SUR2A: sense, […], antisense, […]; for Kir6.2: sense; […], antisense, […]; for Kir6.1: sense, 5′-[…]-3, antisense, 5-[…]-3′; for SUR1: sense, 5′-GGAAGGACTCACCACCATC-3′, antisense, 5′-GAGACCATCAAGGCGTAGG-3′; for SUR2B: sense, 5′-GATGCCACTGTCACCGAAG-3′, antisense, 5-[…]-3′. The real time RT-PCR was performed as described in ref. 14.
Nicotinamide was administered orally, i.e. as a dietary supplement. Mice were fed with nicotinamide-rich diet (ad libidum; 500 mg of nicotinamide per 1 kg of food) for 3 weeks. Estimated daily intake was 2.5 mg. For some in vitro experiments, cardiac cells were incubated for 24 hours in a DMEM medium containing 10% fetal calf serum, 2 mM glutamine and 20 mM NAD or NADH.
All experiments have been done on male mice. […] After the test, mice were sacrificed, hearts harvested and SUR2A mRNA levels measured. […]
A general note: Quantitative PCR measures a nucleic acid by following its amplification.

A further data set relates to male mice. Briefly: Treadmill endurance test. Type of data set: in vivo. To be noted: one week, n=6. How it is done: All experiments have been done on male mice. Mice were on RM1 ad libidum diet (SDS, UK) and RM1 diet supplemented with nicotinamide (0.1, 0.5, 2.5, 12.5 g of nicotinamide per kg of diet which would lead to daily intake of 0.04 mg of nicotinamide in control diet and 0.4 mg, 2 mg, 10 mg and 50 mg in nicotinamide-rich diets). All mice were of similar age and weight. Mice were on these diets for a week. To assess physical endurance in these mice, we have used treadmill endurance test. A six lane treadmill (Columbus Instruments, Columbus, Ohio) was used to perform treadmill tests. The exercise-induced stress protocol consisted of a step-wise increase in velocity at constant incline. Before the experiments, animals were acclimatized to the treadmill for 30 minutes; 10 minutes at 0 m/min, 10 minutes at 3 m/min followed by 10 minutes at 6 m/min two days prior to the treadmill endurance test. The treadmill endurance test consisted of a step-wise increase in velocity over time at constant incline. The animal was made to run at 3, 5, 8 (all at m/min) for 3 min intervals followed by 9, 10, 11, 12, 13, 14, 15 (all at m/min) for 5 min intervals and then at a constant velocity of 16 m/min until exhaustion. After the test, mice were sacrificed, hearts harvested and SUR2A mRNA levels measured. More specifically, total RNA was extracted from cardiac ventricular tissue of transgenic and wild type mice using TRIZOL reagent (Invitrogen, Paisley, UK) according to the manufacturer's recommendations. Extracted RNA was further purified with RNeasy Mini Kit (Qiagen, Crawley, UK) according to the manufacturer's instruction. The for mouse SUR2A were designed as follows: sense, […], antisense, […]. The reverse transcription (RT) reaction was carried out with ImProm-II Reverse Transcriptase (Promega, Southampton, UK). […] Efficiency is evaluated by the slope of the regression curve obtained with several dilutions of the cDNA template. […] Threshold cycle values, PCR efficiency (examined by serially diluting the template cDNA and performing PCR under these conditions) and PCR specificity (by constructing the melting curve) were determined by the same software. […] The relative expression ratio(R) of a gene encoding KATP channel subunit is calculated using equation R=(EK)^ΔCPk^(CD-ND)/(ER)^ΔCPR^(CD-ND) where EK is the real time PCR efficiency of SUR2A gene transcript, ER is the real time PCR efficiency of GAPDH gene, ΔCPK is the crossing point deviation of control diet-nicotinamide diet of SUR2A gene transcript while ΔCPR is the crossing point deviation of control diet-nicotinamide diet of GAPDH gene transcript.

Take `O=[N+]([O-])c1ccc(O)c([N+](=O)[O-])c1` [DNP]: the “cells that survived DNP” value with H9C2 cells is 43.3±1.8%.

Consider `CC(C)NCC(O)c1ccc(O)c(O)c1` (stereo not drawn) [isoprenaline], for which the “relative fluo-3 fluorescence (calcium levels)” value with cardiomyocytes (cardiomyocytes from transgenic SUR2A mice) is 78±16.6; with cardiomyocytes (cardiomyocytes from wild type mice), 127.2±13.8.

As to `NC(=O)c1cccnc1` [nicotinamide], the “threshold cycle, SUR2A mRNA in the heart” value in the data set on SUR2A mRNA (0.1 g/kg nicotinamide-rich diet, one week, after treadmill test) turned out to be 21.8±0.8. In addition, in the data set on SUR2A mRNA (nicotinamide-rich diet, 500 mg per 1 kg of food, 3 weeks, lower cycle = more mRNA), the “threshold cycle, SUR2A mRNA in hearts” value worked out at 23.57±1.47. Further, the time on treadmill in the data set with male mice (0.1 g/kg nicotinamide in diet) is 144.0 ± 14.9 min; with male mice (0.5 g/kg nicotinamide in diet) it was 95.3 ± 18.1 min; with male mice (2.5 g/kg nicotinamide in diet) it was 103.7 ± 20.4 min; in the data set on male mice (12.5 g/kg nicotinamide in diet), 88.2 ± 12.5 min.
